# Reference: PMC12298237 (Marine Drugs, 2025)
# Where a SMILES comes first, the peptide text is derived from it. [ ]: non-standard residue; d: D form. The star is where a group is joined. Leu(ol) = CC(C)C[C@H](N)CO; dIva = CC[C@@](C)(N)C(=O)O; Octanoyl = CCCCCCCC(=O)*
# How the values were obtained:
# Assay type in all cases: cell-based, human
# [1] = test system: phosphorylated ERK1/2 (p-ERK) in HT-29 cells; experiment: Western blot of phosphorylated ERK1/2; settings: HT-29, 9 and 18 μM, 24 h
# Experimental: (§1) Western blotting was performed as previously described. […] Cells were washed twice with PBS and lysed in RIPA buffer (Beyotime Biotechnology, Jiangsu, China) on ice for 30 min. Lysates were centrifuged at 12,000 rpm for 20 min at 4 °C, and the supernatant containing total protein was collected. Equal amounts of protein were separated by SDS-PAGE and transferred onto polyvinylidene fluoride (PVDF) membranes. Membranes were blocked with 5% non-fat milk at room temperature for 1 h, followed by incubation with the appropriate primary and secondary antibodies. Protein bands were visualized using the Omni-ECL Femto Light Chemiluminescence Kit (Epizyme, Shanghai, China) and imaged with the Amersham Imager 680 (Cytiva, Marlborough, MA, USA).
# [2] = test system: phosphorylated ERK1/2 (p-ERK) in DLD-1 cells; experiment: Western blot of phosphorylated ERK1/2; settings: DLD-1, 9 and 18 μM, 24 h
# Experimental: as §1
# DLD-1 cells [3] = experiment: Colony formation assay; settings: DLD-1, 9 or 18 μM, two weeks, crystal violet, vs untreated control, n = 3
# Experimental: (§2) For colony formation assays, DLD-1 and HT-29 cells were seeded into 6-well plates at a density of 800 cells per well. […] The culture medium was refreshed every four days. After two weeks of continuous culture, colonies were fixed with 4% paraformaldehyde for 15 min and subsequently stained with crystal violet solution (Yuanye, Shanghai, China) for 20 min. Colony formation was quantified using ImageJ 1.54g software.
# HT-29 cells [4] = experiment: Colony formation assay; settings: HT-29, 9 or 18 μM, two weeks, crystal violet, vs untreated control, n = 3
# Experimental: as §2
# DLD-1 cells [5] = experiment: Calcein-AM/PI staining assay; settings: DLD-1, 18 μM, 0, 6, 12 and 18 h, fluorescence microscopy
# Experimental: (§3) For the Calcein-AM/PI staining assay, DLD-1 and HT-29 cells were seeded in 24-well plates at 5 × 10^4 cells per well. […] After incubation for 0, 6, 12, and 18 h, cells were stained by using the calcein AM (MedChem Express (Monmouth Junction, NJ, USA), 5 μM) and propidium iodide (MedChem Express, 50 μg/mL). The cells were incubated in the dark at 37 °C for 30 min, followed by imaging with an inverted fluorescence microscope.
# HT-29 cells [6] = experiment: Calcein-AM/PI staining assay; settings: HT-29, 18 μM, 0, 6, 12 and 18 h, fluorescence microscopy
# Experimental: as §3
# DLD-1 cells [7] = experiment: Cell cycle analysis by flow cytometry (PI); settings: DLD-1, 24 h of exposure, in words
# Experimental: (§4) Following treatment, cells were collected, washed, and fixed in 75% pre-chilled ethanol at −20 °C for 24 h. After fixation, cells were centrifuged, washed twice with cold PBS, and stained with propidium iodide (PI, 0.1 mg/mL) in the presence of RNase A (0.1 mg/mL) at 37 °C for 30 min. Cell cycle distribution was analyzed by flow cytometry (LSRFortessa, BD, Canton, MA, USA). To enhance the clarity of the results, cell populations were selectively gated using the ModFit LT 5.0 software.
# HT-29 cells [8] = experiment: Cell cycle analysis by flow cytometry (PI); settings: HT-29, 24 h of exposure, in words
# Experimental: as §4
structure (smiles),measurement,setting,value
"CCCCCCCC(=O)NCC(=O)N[C@@H](Cc1ccccc1)C(=O)N[C@@H](CC(C)C)C(=O)N[C@](C)(CC)C(=O)N[C@@H](C)C(=O)N[C@@H](CC(C)C)C(=O)N[C@H](CO)CC(C)C [Compound 1, lipotrichaibol A] (Octanoyl-GFL[dIva]AL[Leu(ol)])",levels of phosphorylated ERK1/2 (p-ERK),[1],significantly reduced
same,levels of phosphorylated ERK1/2 (p-ERK),[2],significantly reduced
same,number of colony-forming cells,DLD-1 cells [3],markedly reduced
same,number of colony-forming cells,HT-29 cells [4],markedly reduced
same,cell proliferation and dead cells (Calcein-AM/PI staining),DLD-1 cells [5],pronounced reduction in cell proliferation
same,cell proliferation and dead cells (Calcein-AM/PI staining),HT-29 cells [6],pronounced reduction in cell proliferation
same,proportion of cells in the G0/G1 phase,DLD-1 cells [7],significant increase
same,proportion of cells in the G0/G1 phase,HT-29 cells [8],significant increase
